Results reported in patent publication US20250066369A1, “BICYCLIC PHTHALAZIN-1(2H)-ONE DERIVATIVES AND RELATED USES” (NodThera Limited, priority 2022, published 2025).

System: IL-1β release upon NLRP3 activation in peripheral blood mononuclear cells (PBMC)
Test: PBMC IC50 determination assay: inhibition of IL-1β release upon NLRP3 activation
Type: cell-based
Details: PBMC primed with LPS 3 h, compound 30 min, stimulated with ATP (5 mM) or nigericin (10 μM) 1 h, IL-1β by ELISA (Protocol A) or HTRF (Protocol B)
Description: PBMC IC50 determination assay. The compounds of the present disclosure were tested for their inhibitory activity against IL-1β release upon NLRP3 activation in peripheral blood mononuclear cells (PBMC).
Protocol A. PBMC were isolated from buffy coats by density gradient centrifugation on Histopaque-1077 (Sigma, cat no. 10771). Isolated cells were seeded into the wells of a 96-well plate and incubated for 3 h with lipopolysaccharide (LPS). Following medium exchange, the compounds of the present disclosure were added (a single compound per well) and the cells were incubated for 30 min. Next, the cells were stimulated either with ATP (5 mM) or nigericin (10 μM) for 1 h and the cell culture media from the wells were collected for further analysis.
The release of IL-1β into the media was determined by a quantitative detection of IL-1β in the media using an IL-1β enzyme-linked immunosorbent assay (ELISA) Ready-SET-Go!, eBioscience cat. No. 88-7261-88. Briefly, in a first step, high affinity binding plates (Corning, Costar 9018 or NUNC Maxisorp Cat No. 44-2404) were coated overnight at 4° C. with specific capture antibody included in the kit (anti-human IL-1β ref. 14-7018-68). Subsequently, plates were blocked with blocking buffer for 1 h at room temperature (rt) and after washing with a buffer (PBS with 0.05% Tween-20) incubated with protein standard and culture media. After 2 h of incubation at rt, plates were washed and incubated with biotinylated detection antibody included in the kit (anti-human IL-1β Biotin ref 33-7110-68) for 1 h at rt. Plates were washed and incubated with HRP-streptavidin for 30 min at rt and washed again. The signal was developed after addition of 3,3′,5,5′-tetramethylbenzidine-peroxidase (TMB) until colour appeared and the reaction was stopped by 2 M H2SO4. A microplate spectrophotometer (BioTek) was used to detect signals with 450 nm. The detection range of IL-1β ELISA was […].
Protocol B. PBMC were isolated from buffy coats by density gradient centrifugation on Histopaque-1077 (Sigma, cat no. 10771). Isolated cells were seeded into the wells (280,000 cells/well) of a 96-well plate and incubated for 3 h with lipopolysaccharide (LPS, 1 μg/mL diluted 1000× from a 1 mg/mL stock solution). The compounds of the present disclosure were added (a single compound per well) and the cells were incubated for 30 min. Next, the cells were stimulated with ATP (5 mM final concentration diluted 20× from a 100 mM stock solution) for 1 h and the cell culture media from the wells were collected for further analysis.
The release of IL-1β into the media was determined by quantitative detection of IL-1β in the media using HTRF®, CisBio cat. No. 62HIL1BPEH. Briefly, cell culture supernatant were dispensed directly into the assay plate containing antibodies labelled with the HTRF® donor and acceptor. A microplate spectrophotometer (BMG) was used to detect signals at 655 nm and 620 nm. The detection range of IL-1β HTRF® was 39-6500 μg/mL.

Compound	IC50 (PBMC)	IC50
CCc1nn(CC(=O)Nc2ncccn2)c(=O)c2ccc(C3CC3)nc12 [Compound 32, 2-(2-Cyclopropyl-8-ethyl-5-oxo-pyrido[2,3-d]pyridazin-6-yl)-N-pyrimidin-2-yl-acetamide]	0.1 to 1 µM	
CCc1nn(CC(=O)Nc2ncc(F)cn2)c(=O)c2ccc(C3CC3)nc12 [Compound 33, 2-(2-Cyclopropyl-8-ethyl-5-oxo-pyrido[2,3-d]pyridazin-6-yl)-N-(5-fluoropyrimidin-2-yl)acetamide]	0.1 to 1 µM	
Cc1nn(CC(=O)Nc2ncccn2)c(=O)c2ccc(C3CC3)nc12 [Compound 34, 2-(2-Cyclopropyl-8-methyl-5-oxo-pyrido[2,3-d]pyridazin-6-yl)-N-pyrimidin-2-yl-acetamide]	1 to 3 µM	
Cc1nn(CC(=O)Nc2ncc(F)cn2)c(=O)c2ccc(C3CC3)nc12 [Compound 35, 2-(2-Cyclopropyl-8-methyl-5-oxo-pyrido[2,3-d]pyridazin-6-yl)-N-(5-fluoropyrimidin-2yl)acetamide]	0.1 to 1 µM	
CCc1nc2c(C(C)C)nn(CC(=O)Nc3ncc(F)cn3)c(=O)c2s1 [Compound 36]	≤ 0.1 µM	
CCn1cc2c(=O)n(CC(=O)Nc3ncccn3)nc(CF)c2n1 [Compound 40, 2-(2-Ethyl-7-(fluoromethyl)-4-oxo-2,4-dihydro-5H-pyrazolo[3,4-d]pyridazin-5-yl)-N-(pyrimidin-2-yl)acetamide]	1 to 3 µM	
CCc1ccc2c(=O)n(CC(=O)Nc3ncccn3)nc(C(C)C)c2n1 [Compound 42]	0.1 to 1 µM	
CCc1ccc2c(=O)n(CC(=O)Nc3ncc(F)cn3)nc(C(C)C)c2n1 [Compound 43]	0.1 to 1 µM	
Cc1nn(CC(=O)N[C@@H]2CCCN(C)C2)c(=O)c2ccc(C3CC3)nc12 [Compound 46]	1 to 3 µM	
Cc1nn(CC(=O)N[C@@H]2CCCN(C3CCC3)C2)c(=O)c2ccc(C3CC3)nc12 [Compound 47]	0.1 to 1 µM	
CC(C)c1nn(C2(C(=O)Nc3ncccn3)CC2)c(=O)c2cn(C(C)C)nc12 [Compound 50, 1-(2,7-Diisopropyl-4-oxo-2,4-dihydro-5H-pyrazolo[3,4-d]pyridazin-5-yl)-N-(pyrimidin-2-yl)cyclopropane-1-carboxamide]	1 to 3 µM	
CC(C)c1nn(C2(C(=O)Nc3ncc(F)cn3)CC2)c(=O)c2cn(C(C)C)nc12 [Compound 51, 1-(2,7-Diisopropyl-4-oxo-2,4-dihydro-5H-pyrazolo[3,4-d]pyridazin-5-yl)-N-(5-fluoropyrimidin-2-yl)cyclopropane-1-carboxamide]	0.1 to 1 µM	
CCc1cc2c(=O)n(CC(=O)Nc3ncccn3)nc(CC)c2o1 [Compound 54, 2-(2,7-Diethyl-4-oxofuro[2,3-d]pyridazin-5(4H)-yl)-N-(pyrimidin-2-yl)acetamide]	0.1 to 1 µM	
CCc1cc2c(=O)n(CC(=O)Nc3ncc(F)cn3)nc(CC)c2o1 [Compound 55, 2-(2,7-Diethyl-4-oxofuro[2,3-d]pyridazin-5(4H)-yl)-N-(5-fluoropyrimidin-2-yl)acetamide]	0.1 to 1 µM	
CC(C)c1nn(CC(=O)Nc2ncc(F)cn2)c(=O)c2cc(Cl)sc12 [Compound 59, 2-(2-Chloro-7-isopropyl-4-oxothieno[2,3-d]pyridazin-5(4H)-yl)-N-(5-fluoropyrimidin-2-yl)acetamide]	0.1 to 1 µM	
CC(C)c1nn(CC(=O)Nc2ncc(F)cn2)c(=O)c2sc(Cl)cc12 [Compound 60, 2-(2-Chloro-4-isopropyl-7-oxothieno[2,3-d]pyridazin-6(7H)-yl)-N-(5-fluoropyrimidin-2-yl)acetamide]	0.1 to 1 µM	
CC(C)c1nn(CC(=O)Nc2ncc(F)cn2)c(=O)c2sc(Cl)nc12 [Compound 61]	1 to 3 µM	

Compound	IC50 (PBMC)	IC50
CC(C)c1nn(CC(=O)Nc2ncccn2)c(=O)c2cc(Br)oc12 [Compound 62, 2-(2-Bromo-7-isopropyl-4-oxofuro[2,3-d]pyridazin-5(4H)-yl)-N-(pyrimidin-2-yl)acetamide]	0.1 to 1 µM	
Cc1cnc(NC(=O)Cn2nc(C(C)C)c3nn(C(C)C)cc3c2=O)nc1 [Compound 63, 2-(2,7-Diisopropyl-4-oxo-pyrazolo[3,4-d]pyridazin-5-yl)-N-(5-methylpyrimidin-2-yl)acetamide]	0.1 to 1 µM	
CC(C)c1nn(CC(=O)Nc2ncccn2)c(=O)c2sc(Br)cc12 [Compound 64, 2-(2-Bromo-4-isopropyl-7-oxothieno[2,3-d]pyridazin-6(7H)-yl)-N-(pyrimidin-2-yl)acetamide]	0.1 to 1 µM	
CC(C)c1nn(CC(=O)Nc2ncccn2)c(=O)c2cn(C3CC3)nc12 [Compound 65, 2-(2-Cyclopropyl-7-isopropyl-4-oxo-2,4-dihydro-5H-pyrazolo[3,4-d]pyridazin-5-yl)-N-(pyrimidin-2-yl)acetamide]	0.1 to 1 µM	
CC(C)c1nn(C2(C(=O)Nc3ncccn3)CC2)c(=O)c2cn(C3CC3)nc12 [Compound 66, 1-(2-Cyclopropyl-7-isopropyl-4-oxo-2,4-dihydro-5H-pyrazolo[3,4-d]pyridazin-5-yl)-N-(pyrimidin-2-yl)cyclopropane-1-carboxamide]		3 to 10 µM
CC(C)c1nn(CC(=O)Nc2ncc(Cl)cn2)c(=O)c2cn(C(C)C)nc12 [Compound 67, N-(5-Chloropyrimidin-2-yl)-2-(2,7-diisopropyl-4-oxo-2,4-dihydro-5H-pyrazolo[3,4-d]pyridazin-5-yl)acetamide]	0.1 to 1 µM	
CC(C)c1nn(CC(=O)N[C@H]2C[C@@](C)(O)C2)c(=O)c2cn(C(C)C)nc12 [Compound 68, 2-(2,7-Diisopropyl-4-oxo-2,4-dihydro-5H-pyrazolo[3,4-d]pyridazin-5-yl)-N-((cis)-3-hydroxy-3-methylcyclobutyl)acetamide]	1 to 3 µM	
CCc1cc2c(C(C)C)nn(CC(=O)N[C@H]3C[C@@](C)(O)C3)c(=O)c2s1 [Compound 69, 2-(2-Ethyl-4-isopropyl-7-oxothieno[2,3-d]pyridazin-6(7H)-yl)-N-((cis)-3-hydroxy-3-methylcyclobutyl)acetamide]	0.1 to 1 µM	
CC(C)c1nn(C2(C(=O)Nc3ncccn3)CC2)c(=O)c2cn(C3CC3)nc12 [Compound 70, 1-(2-Cyclopropyl-7-isopropyl-4-oxo-2,4-dihydro-5H-pyrazolo[3,4-d]pyridazin-5-yl)-N-(pyrimidin-2-yl)cyclopropane-1-carboxamide]		10 to 50 µM
CC(C)c1nn(CC(=O)Nc2ncccn2)c(=O)c2cn(C3CCC3)nc12 [Compound 71, 2-(2-Cyclobutyl-7-isopropyl-4-oxo-2,4-dihydro-5H-pyrazolo[3,4-d]pyridazin-5-yl)-N-(pyrimidin-2-yl)acetamide]	1 to 3 µM	
CC(C)c1nn(CC(=O)Nc2ncco2)c(=O)c2cn(C(C)C)nc12 [Compound 72, 2-(2,7-Diisopropyl-4-oxo-pyrazolo[3,4-d]pyridazin-5-yl)-N-oxazol-2-yl-acetamide]	0.1 to 1 µM	
CC(C)c1nn(CC(=O)Nc2ncco2)c(=O)c2cn(C3CC3)nc12 [Compound 73, 2-(2-Cyclopropyl-7-isopropyl-4-oxo-2,4-dihydro-5H-pyrazolo[3,4-d]pyridazin-5-yl)-N-(oxazol-2-yl)acetamide]	0.1 to 1 µM	
CC(C)c1nn(CC(=O)N[C@H]2C[C@@](C)(O)C2)c(=O)c2sc(Br)cc12 [Compound 74, 2-(2-Bromo-4-isopropyl-7-oxothieno[2,3-d]pyridazin-6(7H)-yl)-N-(cis-3-hydroxy-3-methylcyclobutyl)acetamide]	1 to 3 µM	
CC(C)c1nn(CC(=O)Nc2ncccn2)c(=O)c2sc(C3CC3)cc12 [Compound 75, 2-(2-Cyclopropyl-4-isopropyl-7-oxothieno[2,3-d]pyridazin-6(7H)-yl)-N-(pyrimidin-2-yl)acetamide]	0.1 to 1 µM	
CC(C)c1nn(CC(=O)Nc2ncco2)c(=O)c2sc(C3CC3)cc12 [Compound 76, 2-(2-Cyclopropyl-4-isopropyl-7-oxothieno[2,3-d]pyridazin-6(7H)-yl)-N-(oxazol-2-yl)acetamide]	0.1 to 1 µM	
CCNc1cc2c(C(C)C)nn(CC(=O)Nc3ncccn3)c(=O)c2s1 [Compound 78, 2-(2-(Ethylamino)-4-isopropyl-7-oxothieno[2,3-d]pyridazin-6(7H)-yl)-N-(pyrimidin-2-yl)acetamide]	≤ 0.1 µM	
